For the assay, the target named is T1, SCD (Mus musculus, UniProt P13516).
T1 construct: from tissue; host or cells: mouse liver microsomes (induced for SCD1 expression)
T1 sequence (P13516 1-355): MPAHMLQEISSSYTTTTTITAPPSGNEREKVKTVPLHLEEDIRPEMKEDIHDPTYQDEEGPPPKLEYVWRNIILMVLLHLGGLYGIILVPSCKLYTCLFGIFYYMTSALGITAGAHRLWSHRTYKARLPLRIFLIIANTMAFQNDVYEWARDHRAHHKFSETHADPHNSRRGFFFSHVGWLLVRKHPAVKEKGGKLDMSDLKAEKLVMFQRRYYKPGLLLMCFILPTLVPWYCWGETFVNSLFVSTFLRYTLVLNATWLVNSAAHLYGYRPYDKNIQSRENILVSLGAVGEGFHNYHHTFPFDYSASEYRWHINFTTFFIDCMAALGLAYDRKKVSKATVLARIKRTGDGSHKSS
The assay is described as follows: SCD microsomal assay (tritiated stearoyl-CoA, release of labeled water), mouse liver microsomes. Format: biochemical. To be noted: % remaining SCD activity at 10 µM of test compound, 100 µg, preincubation 15 minutes, desaturation period 15 minutes at ambient temperature. From the text: The identification of compounds of the invention as SCD inhibitors was readily accomplished using the SCD enzyme and microsomal assay procedure described in Brownlie et al, supra.
The identification of compounds of the invention as SCD inhibitors was readily accomplished using the SCD enzymes and microsomal assay procedure described in Brownlie et al, PCT published patent application, WO 01/62954. Briefly, mouse or human liver microsomes (induced for SCD1 expression and containing cytochrome b5 and cytochrome b5 reductase) and NADH are suspended in buffer with a compound of the invention, and reaction is initiated by addition of 0.025 mM tritiated stearoyl-CoA. This ligand is tritiated at the C9 and C10 position only. The reaction is allowed to proceed for between 5 and 20 minutes at ambient temperature, whereupon it is halted by addition of acid. Activated charcoal is then added, mixed, and centrifuged to separate labeled substrate from labeled water. An aliquot of supernatant is than tested for radioactivity using liquid scintillation counting. This is taken as a measure of delta-9 desaturase activity.
Compounds were tested in mouse liver microsomes, 100 µg, preincubation with the test compound for 15 minutes at ambient temperature, a desaturation period for 15 minutes at ambient temperature, utilizing the large volume bench-top tube method. TABLE 3. SCD INHIBITORY ACTIVITY FOR SELECTED COMPOUNDS.
(Microsomes from liver hold many membrane-bound enzymes, among them those of drug oxidation.)

Values joined by “and” are separate entries in the source; they are usually repeats but may differ in a detail not shown here. Equal values may be shown once.

The molecule `CCCCOCCCNC(=O)c1ccc(N2CCN(C(=O)c3ccc(C)cc3C)CC2)nc1` [N-(3-Butoxy-propyl)-6-[4-(2,4-dimethylbenzoyl)-piperazin-1-yl]-nicotinamide] gave an activity at 10 µM of 0.7%.

Molecule `COCCCNC(=O)c1ccc(N2CCN(C(=O)c3ccccc3Br)CC2)nc1` [6-[4-(2-Bromo-benzoyl)-piperazin-1-yl]-N-(3-methoxy-propyl)-nicotinamide] yielded an activity at 10 µM of 1.2%.

`CCC(C(=O)N1CCN(c2ccc(C(=O)NCCCc3ccccc3)cn2)CC1)c1ccccc1` (centres unmarked) [6-[4-(2-Phenyl-butyryl)-piperazin-1-yl]-N-(3-phenyl-propyl)-nicotinamide] displayed an activity at 10 µM of 3.6%.

As to `O=C(NCCCc1ccccc1)c1ccc(N2CCN(C(=O)c3ccccc3C(F)(F)F)CC2)nc1` [N-(3-Phenyl-propyl)-6-[4-(2-trifluoromethyl-benzoyl)-piperazin-1-yl]-nicotinamide], the “% Activity 10 µM” value is 3.9% and 1.3%.

`CCCCCNC(=O)c1ccc(N2CCN(C(=O)Cc3ccc4ccccc4c3)CC2)nc1` [6-[4-(2-Naphthalen-2-yl-acetyl)-piperazin-1-yl]-N-pentylnicotinamide]: the activity at 10 µM came to 0.7%.

In turn, `CCSCCNC(=O)c1ccc(N2CCN(C(=O)Cc3ccc(C)cc3)CC2)nc1` [N-(2-Ethylsulfanyl-ethyl)-6-[4-(2-p-tolylacetyl)-piperazin-1-yl]-nicotinamide] yielded an activity at 10 µM of 1.8%.

Molecule `CC(CCc1ccccc1)NC(=O)c1ccc(N2CCN(C(=O)c3ccc(Cl)cc3Cl)CC2)nc1` (centres unmarked) [6-[4-(2,4-Dichloro-benzoyl)-piperazin-1-yl]-N-(1-methyl-3-phenyl-propyl)-nicotinamide] came in with an activity at 10 µM of 2.7%.

In the case of `COc1ccc(Br)c(C(=O)N2CCN(c3ccc(C(=O)NCCc4ccccc4)cn3)CC2)c1` [6-[4-(2-Bromo-5-methoxy-benzoyl)-piperazin-1-yl]-N-phenethylnicotinamide], the activity at 10 µM is 1.1%.

Take `CC(C)CC(C)NC(=O)c1ccc(N2CCN(C(=O)c3ccccc3C(F)(F)F)CC2)nc1` (centres unmarked) [N-(1,3-Dimethylbutyl)-6-[4-(2-trifluoromethyl-benzoyl)-piperazin-1-yl]-nicotinamide]: the activity at 10 µM is 1.8%.

As to `CCSCCNC(=O)c1ccc(N2CCN(C(=O)c3cc(OC)ccc3Br)CC2)nc1` [6-[4-(2-Bromo-5-methoxy-benzoyl)-piperazin-1-yl]-N-(2-ethylsulfanylethyl)-nicotinamide], the activity at 10 µM came to 1.4%.

As for `CCSCCNC(=O)c1ccc(N2CCN(C(=O)CCC3CCCCC3)CC2)nc1` [6-[4-(3-Cyclohexyl-propionyl)-piperazin-1-yl]-N-(2-ethylsulfanyl-ethyl)-nicotinamide], the activity at 10 µM was found to be 1.4%.

In turn, `Cc1ccccc1CC(=O)N1CCN(c2ccc(C(=O)NCCC(C)C)cn2)CC1` [N-(3-Methyl-butyl)-6-[4-(2-o-tolyl-acetyl)-piperazin-1-yl]-nicotinamide] gave an activity at 10 µM of 3.2%.

Consider `CCCCNC(=O)c1ccc(N2CCN(C(=O)C(CC)CC)CC2)nc1` [N-Butyl-6-[4-(2-ethylbutyryl)-piperazin-1-yl]-nicotinamide], for which the activity at 10 µM worked out at 2%.

As for `CCOCCCNC(=O)c1ccc(N2CCN(C(=O)c3ccccc3Br)CC2)nc1` [6-[4-(2-Bromo-benzoyl)-piperazin-1-yl]-N-(3-ethoxy-propyl)-nicotinamide], the activity at 10 µM came to 1%.

In the case of `CCCCOCCCNC(=O)c1ccc(N2CCN(C(=O)c3ccccc3Br)CC2)nc1` [6-[4-(2-Bromo-benzoyl)-piperazin-1-yl]-N-(3-butoxy-propyl)-nicotinamide], the activity at 10 µM was determined as 0.8%.

`CCCC(C)NC(=O)c1ccc(N2CCN(C(=O)CCC3CCCCC3)CC2)nc1` (centres unmarked) [6-[4-(3-Cyclohexyl-propionyl)-piperazin-1-yl]-N-(1-methylbutyl)-nicotinamide] came in with an activity at 10 µM of 2.1%.

`CCC(CC)C(=O)N1CCN(c2ccc(C(=O)NCCC(C)C)cn2)CC1` [6-[4-(2-Ethylbutyryl)-piperazin-1-yl]-N-(3-methylbutyl)-nicotinamide] returned an activity at 10 µM of 1.7%.

For the molecule `CCCCCNC(=O)c1ccc(N2CCN(C(=O)c3ccc(Cl)cc3Cl)CC2)nc1` [6-[4-(2,4-Dichloro-benzoyl)-piperazin-1-yl]-N-pentyl-nicotinamide], the activity at 10 µM was determined as 1.2%.

On to `CC(C)CCNC(=O)c1ccc(N2CCN(C(=O)CCC3CCCCC3)CC2)nc1` [6-[4-(3-Cyclohexyl-propionyl)-piperazin-1-yl]-N-(3-methylbutyl)-nicotinamide], for which the activity at 10 µM was determined as 1.3%.

With `Cc1ccsc1C(=O)N1CCN(c2ccc(C(=O)NC(C)CCc3ccccc3)cn2)CC1` (centres unmarked) [N-(1-Methyl-3-phenyl-propyl)-6-[4-(3-methyl-thiophene-2-carbonyl)-piperazin-1-yl]-nicotinamide], the activity at 10 µM turned out to be 3.4%.

These data come from patent publication EP1763350B1, “NICOTINAMIDE DERIVATIVES AND THEIR USE AS THERAPEUTIC AGENTS” (Xenon Pharmaceuticals Inc., priority 2004, dated 2006).
